Data published in patent US20260232684A1, “FLT3 INHIBITORS AND METHODS OF USING THE SAME” (BIOVENTURES, LLC, priority 2023, published 2026).
Entries after “also recorded” stand apart in the source; their conditions may differ.

Legend:
Molm14 F691L cells = assay: Cell viability assay (CellTiter GLO), Molm14 F691L; format: cell-based, human; settings: 48 hours
Description: (§1) FIG. 1. […] Cells were treated with inhibitor at increasing log doses (0.1 nM-10 μM) for 48 hours. Cell viability was analyzed through CellTiter GLO. […] Cells were exposed to increasing amounts of each drug for 2 hours. GAPDH1 represents loading control for phospho-ERK and ERK blots. GAPDH2 represents loading control for phosphor-STAT5, STAT5, phospho-S6 and S6. Each experiment was completed in triplicate. Representative images are shown.
(§2) FIG. 5. […] Cells were dosed with inhibitor at increasing log doses (0.1 nM-10 μM) for 48 hours. Cell viability was analyzed through CellTiter GLO.
(§3) MV-4-11 and parental Molm-14 cells were a gift from Dr. Scott Kogan (University of California, San Francisco). HL60 and K562 cell lines were obtained from Charles Sawyers. […] Stable Ba/F3 lines were generated by retroviral infection as previously described (5). All cell lines were tested to be mycoplasma free and human cell lines were authenticated through STR profiling completed at the University of California, Berkeley.
(§4) Each triplicate was either dosed with drug or DMSO vehicle control. Drug dosing was completed at log doses ranging from 0.1 nM-10 μM. Cell viability was assessed after 48 hours using CellTiter GLO (Promega). Viability values were normalized to the vehicle control average. Numerical IC50 values were calculated in GraphPad Prism 7.

[1] = system: FLT3 phosphorylation in Ba/F3 cells stably expressing FLT3-ITD in human plasma; assay: Plasma inhibitory assay; format: cell-based; settings: for inhibition of FLT3 in the presence of human plasma, in words: 120 minutes, same concentrations as comparators
Description: A pitfall of some prior FLT3 inhibitors has been poor pharmacokinetic profiles. The plasma inhibitory assay identifies one pharmacokinetic profile by evaluating the activity of drugs in the presence of human plasma proteins that can sequester inhibitors in clinical experience.
Plasma Inhibitory Assay was performed as previously described with modifications (40). Ba/F3 cells (7×10^6 cells) stably expressing FLT3-ITD were resuspended in 1 mL of RPMI 1640+10% FBS or human plasma from a healthy control. All samples were collected under the University of California, San Francisco institutional review board (IRB)-approved cell banking protocol (CC #112514). Informed consent was obtained in accordance with the Declaration of Helsinki. The appropriate amount of drug was added and incubated at 37° C. for 120 minutes. Following, cells were washed in PBS and lysed in HEPES lysis buffer supplemented with protease and phosphatase inhibitors and processed as previously described (40,41). Immunoblotting was performed using anti-phospho-FLT3 and anti-FLT3 antibody (Cell Signaling).

[2] = system: FLT3 signaling in Molm14 subcutaneous xenografts; assay: In vivo target inhibition in Molm14 subcutaneous xenografts; parameters: species or system mice; settings: for oral bioavailability and pharmacokinetic profile, in words: mice, oral gavage; for inhibition of target and downstream effectors at 4 hour and 8 hours: single dose by oral gavage, all doses, Western blot of tumors
From the text: FIG. 6. Assessment of in vivo target inhibition by compounds 1 and 2 in Molm14 subcutaneous xenografts. Western blot analysis of 1 and 2 in a Molm14 xenograft model.

[3] = system: FLT3 phosphorylation in Molm14 D835Y cells; assay: Immunoblotting of phospho-FLT3 and downstream signaling, Molm14 D835Y; format: cell-based, human; settings: 2 hours, Western blot
Description: (§5) FIG. 1. Activity of compounds 1 and 2 against parental Molm14 cells harboring secondary kinase domain mutations associated with clinical resistance to active FLT3 TKIs. […] Each point represents the calculated IC50 from an independent experiment completed in triplicate. Cells were treated with inhibitor at increasing log doses (0.1 nM-10 μM) for 48 hours. Cell viability was analyzed through CellTiter GLO. […] Cells were exposed to increasing amounts of each drug for 2 hours. GAPDH1 represents loading control for phospho-ERK and ERK blots. GAPDH2 represents loading control for phosphor-STAT5, STAT5, phospho-S6 and S6. Each experiment was completed in triplicate. Representative images are shown.
(§6) Exponentially growing Molm-14 or Ba/F3 cells were plated with RPMI 1640+10% (vol/vol) FBS with the indicated amount of drug. Following 120 minute incubation at 37° C., cells were washed in PBS and lysed in HEPES lysis buffer supplemented with protease and phosphatase inhibitors and processed as previously described (39). Immunoblotting was performed using anti-phospho-tyrosine 4G10 antibody (Millipore Sigma) and anti-FLT3 antibody (Cell Signaling Technology) following immunoprecipitation with anti-FLT3 antibody from 500 μg of total protein. Immunoblotting of ERK, STAT5, S6 and GAPDH was performed with anti-phospho-ERK, anti-ERK, anti-phospho-STAT5, anti-STAT5, anti-phospho-S6, anti-S6 and anti-GAPDH antibody (Cell Signaling Technology)

[4] = system: MV-4-11 cells (FLT3-ITD-expressing); assay: Cell viability assay (CellTiter GLO), MV-4-11; format: cell-based, human; settings: MV-4-11, 48 hours
Description: as §1, §3, §4

[5] = system: TKI-naïve primary AML patient samples expressing FLT3-ITD; assay: Short-term liquid culture growth inhibition of primary AML samples; format: cell-based, human; settings: 100 nM, up to 7 days, CellTiter GLO, five patient samples
Description: FIG. 11. Activity of compounds against primary FLT3-ITD AML samples in short term liquid culture assays. […] Plates were incubated with drug for 0, 1, 2, 3, 5 or 7 days. FLT3 mutation is noted for each patient in parentheses. Cell viability was analyzed through CellTiter GLO.
The compounds were further evaluated for activity against TKI-naïve primary AML patient samples expressing FLT3-ITD in short-term liquid culture growth inhibition assays (24).

[6] = system: FLT3 phosphorylation in Molm14 F691L cells; assay: Immunoblotting of phospho-FLT3 and downstream signaling, Molm14 F691L; format: cell-based, human; settings: 2 hours, Western blot
Description: as §5, §6

Molm14 D835Y cells = assay: Cell viability assay (CellTiter GLO), Molm14 D835Y; format: cell-based, human; settings: 48 hours
Description: as §1, §2, §3, §4

[7] = system: FLT3 phosphorylation in parental Molm14 cells; assay: Immunoblotting of phospho-FLT3 and downstream signaling, Molm14; format: cell-based, human; settings: parental Molm14, 2 hours, Western blot
Description: as §5
Exponentially growing Molm-14 or Ba/F3 cells were plated with RPMI 1640+10% (vol/vol) FBS with the indicated amount of drug. Following 120 minute incubation at 37° C., cells were washed in PBS and lysed in HEPES lysis buffer supplemented with protease and phosphatase inhibitors and processed as previously described (39). Immunoblotting was performed using anti-phospho-tyrosine 4G10 antibody (Millipore Sigma) and anti-FLT3 antibody (Cell Signaling Technology) following immunoprecipitation with anti-FLT3 antibody from 500 μg of total protein. […]

FLT3 = FLT3 (Homo sapiens, UniProt P36888); assay: Enzyme kinetic analysis (5-FAM microfluidic assay), FLT3; format: biochemical; settings: variable ATP and inhibitor concentrations
Sequence of FLT3 (P36888 27-993): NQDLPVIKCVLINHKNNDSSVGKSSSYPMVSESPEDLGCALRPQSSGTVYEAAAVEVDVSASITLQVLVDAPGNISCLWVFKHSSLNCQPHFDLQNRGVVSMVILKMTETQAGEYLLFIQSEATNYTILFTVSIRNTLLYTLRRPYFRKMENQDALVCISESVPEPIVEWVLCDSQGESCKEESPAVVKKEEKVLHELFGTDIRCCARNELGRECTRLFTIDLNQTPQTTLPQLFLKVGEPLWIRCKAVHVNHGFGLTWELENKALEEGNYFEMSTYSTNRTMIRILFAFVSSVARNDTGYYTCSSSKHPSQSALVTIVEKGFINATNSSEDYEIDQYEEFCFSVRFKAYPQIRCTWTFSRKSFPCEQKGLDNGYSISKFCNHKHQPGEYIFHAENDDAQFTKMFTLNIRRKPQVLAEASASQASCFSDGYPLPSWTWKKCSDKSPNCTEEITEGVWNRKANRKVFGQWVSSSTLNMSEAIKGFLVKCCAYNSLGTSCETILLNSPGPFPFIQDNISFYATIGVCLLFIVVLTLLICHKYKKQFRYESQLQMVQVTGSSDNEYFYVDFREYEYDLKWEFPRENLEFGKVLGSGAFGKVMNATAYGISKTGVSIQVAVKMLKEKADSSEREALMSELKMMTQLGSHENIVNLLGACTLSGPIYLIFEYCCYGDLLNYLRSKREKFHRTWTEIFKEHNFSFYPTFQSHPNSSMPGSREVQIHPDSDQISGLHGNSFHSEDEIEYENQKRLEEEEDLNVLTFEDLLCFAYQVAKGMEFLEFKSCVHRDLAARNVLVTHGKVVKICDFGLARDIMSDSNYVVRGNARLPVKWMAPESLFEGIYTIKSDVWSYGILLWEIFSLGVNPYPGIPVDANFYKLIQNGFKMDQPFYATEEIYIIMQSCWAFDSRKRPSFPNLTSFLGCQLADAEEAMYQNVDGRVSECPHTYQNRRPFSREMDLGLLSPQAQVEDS
Description: FIG. 14. Enzyme kinetic analysis of compound 1 and 2 against FLT3 and FLT3 D835Y. The 5-FAM labeled microfluidic assay was utilized and all the activities were measured using Caliper EZ Reader II with a 12-sipper chip. In the presence of variable concentrations of compound 1 or 2, phosphorylation activities of FLT3 and FLT3 D835Y were measured at different level of ATP within certain time durations.
To further assess putative binding modes of compounds 1 and 2, enzyme kinetic analyses were performed.

[8] = system: panel of 468 kinases and kinase mutants; assay: KINOMEscan screening; format: binding; settings: for number of kinases bound relative to gilteritinib: 20× the Molm14 IC50 concentration of each compound

**Q.** With `CC(C)(C)c1cc(NC(=O)Cc2ccc(-c3cnc4cc(-c5cnn(CCN6CCOCC6)c5)ccc4n3)cc2)no1` [Compound 2, N-(5-(tert-butyl)isoxazol-3-yl)-2-(4-(6-(1-(2-morpholinoethyl)-1H-pyrazol-4-yl)quinoxalin-2-yl)phenyl) acetamide] as the molecule, how does the “activity in cell viability assay (IC50, FIG. 1A/5B), in words” value (from here on “activity … (IC50, FIG. 1A/5B), in words”) (Molm14 F691L cells) read?
**A.** retain activity

**Q.** What about the “inhibition of FLT3 in the presence of human plasma, in words” value [1] of the same molecule?
**A.** more potent inhibition of FLT3 in the presence of plasma compared to quizartinib and gilteritinib

**Q.** And the “oral bioavailability and pharmacokinetic profile, in words” value [2]?
**A.** oral bioavailability and acceptable pharmacokinetic profiles

**Q.** And the “inhibition of target and downstream effectors at 4 hour and 8 hours” value [2]?
**A.** inhibition of target and downstream effectors at all doses

**Q.** What about the “target inhibition at 24 hours” value ([2]; single oral dose, 10 mg/kg) of the same molecule?
**A.** sustained target inhibition

**Q.** What about the “kinase signaling at 24 hours” value ([2]; single oral dose, lower doses) of the same molecule?
**A.** kinase signaling was restored

**Q.** And the “concentration that fully ablated FLT3 phosphorylation” value [3]?
**A.** 50 nM

**Q.** What about the “inhibition of FLT3 phosphorylation and downstream targets, in words” value [3] of the same molecule?
**A.** somewhat decreased ability to inhibit phosphorylation

**Q.** What about the “activity in cell viability assay (IC50, FIG. 1A), in words” value [4] of the same molecule?
**A.** activity comparable to quizartinib and superior to gilteritinib

**Q.** What about the “activity against primary FLT3-ITD AML samples, in words” value [5] of the same molecule?
**A.** most potent activity of all the compounds

**Q.** What about the “concentration with complete elimination of phosphorylation” value [6] of the same molecule?
**A.** 50 nM

**Q.** And the “concentration with noticeable decrease in phosphorylation” value [6]?
**A.** 10 nM

**Q.** What about the “inhibition of FLT3 phosphorylation, in words” value [6] of the same molecule?
**A.** most potent of all the inhibitors evaluated

**Q.** What about the “activity … (IC50, FIG. 1A/5B), in words” value (Molm14 D835Y cells) of the same molecule?
**A.** retain activity

**Q.** And the “inhibition of FLT3 phosphorylation and downstream signaling, in words” value [7]?
**A.** low nanomolar concentrations were sufficient to inhibit phosphorylation of FLT3

**Q.** And the “binding mode / inhibitor type from enzyme kinetics” value (FLT3)?
**A.** type 2 inhibitor; also recorded: type 2 binding mode

**Q.** What about the “number of kinases bound relative to gilteritinib” value [8] of the same molecule?
**A.** bound to far fewer kinases than gilteritinib

**Q.** How did the “activity … (IC50, FIG. 1A/5B), in words” value (Molm14 F691L cells) turn out when `CN(C)CCNc1ncc(F)c(-c2cnc3cc(-c4cnn(C)c4)ccn23)n1` [Compound 1] was run?
**A.** retain activity

**Q.** What about the “impact of the presence of plasma on activity” value ([1]; human plasma vs RPMI 1640+10% FBS) of the same molecule?
**A.** almost no impact

**Q.** And the “inhibition of FLT3 in the presence of human plasma, in words” value [1]?
**A.** more potent inhibition of FLT3 in the presence of plasma compared to quizartinib and gilteritinib

**Q.** What about the “oral bioavailability and pharmacokinetic profile, in words” value [2] of the same molecule?
**A.** oral bioavailability and acceptable pharmacokinetic profiles

**Q.** What about the “inhibition of target and downstream effectors at 4 hour and 8 hours” value [2] of the same molecule?
**A.** inhibition of target and downstream effectors at all doses

**Q.** What about the “target inhibition at 24 hours” value ([2]; single oral dose, 2 mg/kg and 10 mg/kg) of the same molecule?
**A.** sufficient for retaining target inhibition for 24 hours

**Q.** What about the “inhibition of FLT3 phosphorylation and downstream targets, in words” value [3] of the same molecule?
**A.** potent inhibition of phosphorylation

**Q.** What about the “activity in cell viability assay (IC50, FIG. 1A), in words” value [4] of the same molecule?
**A.** activity comparable to quizartinib and superior to gilteritinib

**Q.** And the “activity against primary FLT3-ITD AML samples, in words” value [5]?
**A.** activity comparable to quizartinib and gilteritinib in all samples

**Q.** What about the “inhibition of FLT3 phosphorylation, in words” value [6] of the same molecule?
**A.** decreased level of activity

**Q.** What about the “activity … (IC50, FIG. 1A/5B), in words” value (Molm14 D835Y cells) of the same molecule?
**A.** retain activity

**Q.** And the “inhibition of FLT3 phosphorylation and downstream signaling, in words” value [7]?
**A.** low nanomolar concentrations were sufficient to inhibit phosphorylation of FLT3

**Q.** What about the “binding mode / inhibitor type from enzyme kinetics” value (FLT3) of the same molecule?
**A.** type 1 inhibitor; also recorded: type 1 binding mode

**Q.** What about the “selectivity profile, in words” value ([8]; 20× the Molm14 IC50 concentration) of the same molecule?
**A.** remarkable selectivity profile

**Q.** What about the “number of kinases bound relative to gilteritinib” value [8] of the same molecule?
**A.** bound to far fewer kinases than gilteritinib

**Q.** What about the “six kinases bound with greatest affinity” value ([8]; KINOMEscan analysis) of the same molecule?
**A.** FLT3, IRAK4, PHGK1, PHGK2, CDK7, TRKA
